Experimental data from publication PMC8588131, “Synthesis, In Silico Studies, and Evaluation of Syn and Anti Isomers of N-Substituted Indole-3-carbaldehyde Oxime Derivatives as Urease Inhibitors against Helicobacter pylori” (Molecules, 2021).

How the values were obtained:
[1] = system: Macrotyloma uniflorum urease; test: in vitro urease inhibitory assay (modified Berthelot reaction, indophenol blue, absorbance at 630 nm); type: biochemical, Macrotyloma uniflorum (Horse gram); conditions: for Maximum Percentage of Inhibition: maximum over tested range 5.00-35.00 μg/mL; for IC50: urease extracted from Macrotyloma uniflorum, thiourea as standard inhibitor, 37 °C, pH 7.2
Method: All synthesized oxime compounds (2, 6, 7, 8, and 9) were evaluated for the in vitro urease inhibitory activity using a colorimetric method. This method involves the formation of indophenol blue in a basic medium where the modified Berthelot reaction is used. The urease enzyme required for the assay was extracted from Macrotyloma uniflorum (Horse gram) with the activity of 0.1013 U, and thiourea was used as the standard inhibitor [34]. The amount of ammonia produced within a given period of time was quantified using a standard calibration method.
Modified Berthelot method was used for the determination of the amount of produced ammonia, and thereby for the quantification of the urease inhibitory activities of the synthesized oxime derivatives (compounds 2, 6, 7, 8, and 9) by measuring their absorbance at 630 nm. All the test compounds and thiourea were prepared by dissolving 2 mg of each compound in 20 mL of 1.25% DMF - buffer solution (pH = 7.2, Na2HPO4 = 0.067 mol dm^−3, KH2PO4 = 0.033 mol dm^−3). DMF doesn’t show any inhibitory effect on urease activity. Initially, a 96 well plate filled with 10 μL of urease enzyme (0.01 U) and 10–70 μL of the test compound was placed in the plate reader and incubated at 37 °C for 15 min. (Concentration of each sample was changed by varying the volume of test compounds from 10 to 70 μL.) Then, to each well, 10 μL of the buffer, 10 μL of EDTA (0.025 mol dm^−3), and 10 μL of urea (0.64 mol dm^−3) were added. After that, 80–20 μL of distilled water was added accordingly to adjust the total volume to 130 μL and incubated in plate reader for another 20 min at 37 °C. Then 35 μL of each coloring agents ((coloring agent A—1% (w/v) phenol, 0.005% (w/v) sodium nitroprusside and coloring agent B—0.5% (w/v) NaOH, 0.05% (v/v) NaOCl)) were introduced to each well, and the plate was incubated in plate reader for another 50 min at 37 °C for the development of indophenol blue color. At the end of the 50 min, the absorbance of each sample was measured at the absorbance wavelength of 630 nm. A control test was conducted to quantify the total hydrolysis of urea in the presence of urease (C). Negative control was carried out to quantify the spontaneous hydrolysis of urea in the absence of the urease enzyme (N). For each sample (T1–7), a negative control test (N1–7) was performed in the absence of the urease enzyme. All experiments were performed thrice. The percentage inhibition of the urease enzyme was calculated using Equation (1). (1) percentage inhibition=[[AC−AN]−[AT1−AN1]/[AC−AN]]×100 where • AC = Absorbance of the control sample (C) • AN = Absorbance of the negative control sample (N) • AT1−7 = Absorbance of the test sample (T1 to T7) • AN1−7 = Absorbance of the negative control of the test sample (N1 to N7)

Cn1cc(/C=N/O)c2ccccc21 [Compound 7, (E)-N-hydroxy-1-(1-methyl-1H-indol-3-yl)methanimine]
melting point: 126 to 129 °C | Percentage inhibition (± SEM) ([1]; at 5.00 μg/mL): 22.74 ± 0.93% | Percentage inhibition (± SEM) ([1]; at 10.00 μg/mL): 31.87 ± 0.59% | Percentage inhibition (± SEM) ([1]; at 15.00 μg/mL): 38.14 ± 1.25% | Percentage inhibition (± SEM) ([1]; at 20.00 μg/mL): 44.38 ± 0.35% | Percentage inhibition (± SEM) ([1]; at 25.00 μg/mL): 48.92 ± 0.67% | Percentage inhibition (± SEM) ([1]; at 30.00 μg/mL): 53.01 ± 0.85% | Maximum Percentage of Inhibition [1]: 57.17% | IC50 [1]: 153 ± 1.6 µM

Cn1cc(/C=N\O)c2ccccc21 [Compound 6, (Z)-N-hydroxy-1-(1-methyl-1H-indol-3-yl)methanimine]
melting point: 112 to 115 °C | Percentage inhibition (± SEM) ([1]; at 5.00 μg/mL): 24.57 ± 1.22% | Percentage inhibition (± SEM) ([1]; at 10.00 μg/mL): 28.15 ± 0.81% | Percentage inhibition (± SEM) ([1]; at 15.00 μg/mL): 29.91 ± 0.90% | Percentage inhibition (± SEM) ([1]; at 20.00 μg/mL): 40.38 ± 0.24% | Percentage inhibition (± SEM) ([1]; at 25.00 μg/mL): 55.76 ± 0.60% | Percentage inhibition (± SEM) ([1]; at 30.00 μg/mL): 73.07 ± 0.35% | Maximum Percentage of Inhibition [1]: 77.05% | IC50 [1]: 140 ± 4.5 µM

O/N=C\c1c[nH]c2ccccc12 [Compound 2, (Z)-N-hydroxy-1-(1H-indole-3-yl)methanimine]
Percentage inhibition (± SEM) ([1]; at 5.00 μg/mL): 17.46 ± 0.71% | Percentage inhibition (± SEM) ([1]; at 10.00 μg/mL): 24.56 ± 0.53% | Percentage inhibition (± SEM) ([1]; at 15.00 μg/mL): 29.28 ± 0.52% | Percentage inhibition (± SEM) ([1]; at 20.00 μg/mL): 39.40 ± 0.65% | Percentage inhibition (± SEM) ([1]; at 25.00 μg/mL): 57.27 ± 0.63% | Percentage inhibition (± SEM) ([1]; at 30.00 μg/mL): 64.87 ± 0.93% | Maximum Percentage of Inhibition [1]: 67.81% | IC50 [1]: 141 ± 7.5 µM

O/N=C\c1cn(Cc2ccccc2)c2ccccc12 [Compound 8, (Z)-1-(1-benzyl-1H-indol-3-yl)-N-hydroxymethanimine]
melting point: 132 to 134 °C | Percentage inhibition (± SEM) ([1]; at 5.00 μg/mL): 36.36 ± 0.79% | Percentage inhibition (± SEM) ([1]; at 10.00 μg/mL): 44.39 ± 0.70% | Percentage inhibition (± SEM) ([1]; at 15.00 μg/mL): 58.52 ± 0.58% | Percentage inhibition (± SEM) ([1]; at 20.00 μg/mL): 67.99 ± 1.01% | Percentage inhibition (± SEM) ([1]; at 25.00 μg/mL): 76.49 ± 1.24% | Percentage inhibition (± SEM) ([1]; at 30.00 μg/mL): 79.64 ± 0.88% | Maximum Percentage of Inhibition [1]: 83.78% | IC50 [1]: 51.6 ± 3.5 µM

O/N=C/c1cn(Cc2ccccc2)c2ccccc12 [Compound 9, (E)-1-(1-benzyl-1H-indol-3-yl)-N-hydroxymethanimine]
melting point: 140 to 143 °C | Percentage inhibition (± SEM) ([1]; at 5.00 μg/mL): 33.06 ± 1.23% | Percentage inhibition (± SEM) ([1]; at 15.00 μg/mL): 72.38 ± 0.77% | Percentage inhibition (± SEM) ([1]; at 20.00 μg/mL): 77.61 ± 1.55% | Percentage inhibition (± SEM) ([1]; at 25.00 μg/mL): 83.21 ± 0.82% | Percentage inhibition (± SEM) ([1]; at 30.00 μg/mL): 84.89 ± 0.47% | Maximum Percentage of Inhibition [1]: 86.09% | IC50 [1]: 34.5 ± 0.8 µM

NC(N)=S [Thiourea, thiourea, reference compound]
Percentage inhibition (± SEM) ([1]; at 5.00 μg/mL): 11.24 ± 0.28% | Percentage inhibition (± SEM) ([1]; at 10.00 μg/mL): 22.61 ± 0.49% | Percentage inhibition (± SEM) ([1]; at 15.00 μg/mL): 38.41 ± 0.63% | Percentage inhibition (± SEM) ([1]; at 20.00 μg/mL): 61.54 ± 0.53% | Percentage inhibition (± SEM) ([1]; at 25.00 μg/mL): 74.36 ± 0.50% | Percentage inhibition (± SEM) ([1]; at 30.00 μg/mL): 81.49 ± 0.67% | Maximum Percentage of Inhibition [1]: 85.14% | IC50 [1]: 239 ± 4.8 µM
